From patent US7528115B2, “Carbonate and carbamate prodrugs of thiazolo[4,5-d]pyrimidines” (Anadys Pharmaceuticals, Inc., priority 2006, dated 2009)

Test: Animal PK: oral availability of 53b in cynomolgus monkeys after dosing of Formula I prodrugs
Type: in vivo
Conditions: 53b dosed IV
Experimental: The ability of prodrugs of the present invention to deliver 53a or 53b to the systemic circulation after oral dosing was assessed by methods well known in the art. For Table 1, each test compound was formulated into a solution for oral dosing by dissolving the compound in either an aqueous buffer such as PBS at pH 3 or pH 7 (in a solution of 100% propylene glycol), or in a solution containing a solubilizer such as Cremophor EL, Tween80, or PEG400. The solution of the compound was dosed by oral gavage to cynomolgus monkeys, generally using a group of four animals for each experiment. Plasma samples were collected from the animals at several time points (usually, from 6 to 12 time points were used) within 24 hours. The plasma samples were frozen quickly after collection, and thawed immediately before sample preparation for bioanalysis. […]
Calibration standards were prepared by serial dilution of an initial concentrated standard of the analyte with either animal plasma or cell culture media. […] The acceptance of the calibration curves was based on the accuracy of the back-calculated standard concentrations. A standard was accepted if the accuracy was within 15% for all the standards, except for the lower limit of quantitation for which 20% was applied. The fitted calibration curve was used to calculate the quantity of analyte in samples. […]

## Nc1nc2c(sc(=O)n2C2O[C@H](CO)[C@H](O)[C@H]2O)c(=O)[nH]1 (some centres unmarked) [Compound 53b]
10 mg/kg (reference for the ratio)
  FPO: 1
Cynomolgus monkey, plasma, 10 mg/kg, cynomolgus monkeys, mean of all individual AUC(0-inf) values
  AUC(0-inf): 15200 ng·h/mL
